This is an account of results in patent publication US11208405B2, “Pyrrole derivatives as PLK1 inhibitors” (SENTINEL ONCOLOGY LIMITED, priority 2017, dated 2021).

Molecules are shown by their SMILES. Where a name gives a salt, the structure may show the parent alone.

The subject of the assay is HCT116 cells. In words: Effects on HCT116 colorectal cancer cell viability (cell titre blue, 72 hours). The conditions noted are these: Homo sapiens, HCT-116, HCT116 cell line. Type of assay: cell-based. As for the experimental part:
Assay to Measure the Effects of Compounds of the Invention on HCT116 Colorectal Cancer Cell Viability
The following protocol was used to measure the effects of compounds of the invention on HCT116 cell viability.
1. HCT116 cells were grown in RPM11640 media supplemented with Glutamax and 10% FBS in a 37° C./5% CO2 incubator.
2. Growing culture of HCT116 cells were trypsinised, counted and diluted to give 10,000 cells/mL in an appropriate volume, allowing at least 6 mL of cells per plate.
3. 200 μL of PBS were added to all the outer wells of a flat-bottomed (8×12) 96-well TC plate. 100 μL of media were added only to wells in column 11 of the plates (these wells provided a blank for the cell titre blue assay). Two compounds were assayed on each plate.
4. 100 ul of 10,000 cells/mL HCT116s were plated in rows B-G of each plate.
5. The cells were incubated (37° C. 5% CO2) for 24 hours before treating with compounds.
6. An 8 mM compound stock in DMSO was prepared for all compounds to be tested. 2.5 μL of the compound stock was added to 1000 μL growth medium in a 96-well deep well block and serial dilutions were prepared across the plate by transferring 500 μL into wells containing 500 μL growth medium+0.25% DMSO to give eight concentrations of compound (this ensured a constant amount of DMSO at all concentrations of compound). When making up growth medium+DMSO, an amount of 5 ml was allowed per compound to be diluted.
7. 3 rows of cells were treated with 100 μL/well from each row on the dilution plate so that each cell plate is treated with a single compound. This gave a final volume in all wells of 200 μL and a titration of compound from a final concentration of 10 uM down to 78 nM.
8. The cells were incubated (37° C. 5% CO2) for 72 hours.
9. 5 ul cell titre blue reagent (Promega) were added to all wells except the edge wells (which contain PBS only) and incubated (37° C. 5% CO2) for 2.5-3 hours.
10. Fluorescence was measured on a suitable plate reader using a 530-570 nm filter set for excitation and a 580-620 nm filter set for fluorescence emission.
11. Data were analysed using an appropriate graphing package (such as GraphPad Prism). Data were expressed as the concentration of compound causing a 50% inhibition of cell viability or GI50.
Consider `CN(C)CCN(C)C(=O)c1ccc(-c2ccc(-c3ccc(Cl)cc3)n2-c2ccccc2C(F)(F)F)cc1` [Example 83, hydrochloride], for which the GI50 (in general, the concentration that inhibits growth by half) turned out to be 60 nM.

Compound `O=C(c1ccc(-c2ccc(-c3ccc(Cl)cc3)n2-c2ccccc2C(F)(F)F)cc1)N1CCNCC1` [Example 84, hydrochloride] registered a concentration for 50% growth inhibition (GI50) of 190 nM.

The compound `CN1CCN(C(=O)c2ccc(-c3ccc(-c4ccc(Cl)cc4)n3-c3ccccc3C(F)(F)F)cc2)CC1` [Example 85, hydrochloride] had a GI50 of 490 nM.

Regarding `COCCNC(=O)c1ccc(-c2ccc(-c3ccc(Cl)cc3)n2-c2ccccc2C(F)(F)F)cc1` [Example 86, 4-[5-(4-chlorophenyl)-1-[2-(trifluoromethyl)phenyl]pyrrol-2-yl]-N-(2-methoxyethyl)benzamide], the GI50 turned out to be 340 nM.

On to `CN1CCN(CCNC(=O)c2ccc(-c3ccc(-c4ccc(Cl)cc4)n3-c3ccccc3C(F)(F)F)cc2)CC1` [Example 88, hydrochloride], for which it took 250 nM to inhibit growth by half (GI50).

Compound `CN(C)CCNC(=O)c1ccc(-c2ccc(-c3ccc(Cl)cc3)n2-c2cnccc2C(F)(F)F)c(F)c1` [Example 89, hydrochloride] gave a 50% growth inhibitory concentration (GI50) of 1360 nM. This GI50 is about 5.4-fold higher than that of the compound before.

`CN(C)CCNC(=O)Nc1ccc(-c2ccc(-c3ccc(Cl)cc3)n2-c2ccccc2C(F)(F)F)cc1` [Example 90, 1-[4-[5-(4-Chlorophenyl)-1-[2-(trifluoromethyl)phenyl]pyrrol-2-yl]phenyl]-3-[2-(dimethylamino)-ethyl]urea Hydrochloride] registered a GI50 of 500 nM.

In turn, `CN(C)CCNC(=O)c1ccc(-c2onc(-c3ccc(Cl)cc3)c2-c2ccccc2C(F)(F)F)cc1` [Example 92, Hydrochloride] registered a concentration for 50% growth inhibition (GI50) of 30 nM.

As for `CN(C)CCNC(=O)c1ccc(-c2[nH]nc(-c3ccc(Cl)cc3)c2-c2ccccc2C(F)(F)F)cc1` [Example 93, 4-[3-(4-chlorophenyl)-4-[2-(trifluoromethyl)phenyl]-1H-pyrazol-5-yl]-N-[2-(dimethylamino)ethyl] Benzamide Hydrochloride], it took 260 nM to inhibit growth by half (GI50).

For `NCCNC(=O)c1ccc(-c2ccc(-c3ccc(Cl)cc3)n2-c2ccccc2C(F)(F)F)cc1` [Example 94, hydrochloride], it took 50 nM to inhibit growth by half (GI50).

For `O=C(NCCN1CCOCC1)c1ccc(-c2ccc(-c3ccc(Cl)cc3)n2-c2ccccc2C(F)(F)F)cc1` [Example 95, hydrochloride], the GI50 worked out at 80 nM. This GI50 is about 1.6-fold higher than that of the compound before.

With `O=C(NCCN[C@H]1CCOC1)c1ccc(-c2ccc(-c3ccc(Cl)cc3)n2-c2cnccc2C(F)(F)F)cc1` [Example 96], halving of growth (GI50) required 30 nM.

In the case of `CN(C)CCNC(=O)c1ccc(-c2ccc(-c3ccc(Cl)cc3)n2-c2ccc(F)cc2C(F)(F)F)cc1` [Example 97, hydrochloride], the GI50 is 20 nM.

As for `CN(C)CCNC(=O)c1ccc(-c2ccc(-c3ccc(Cl)cc3)n2-c2ccc(Cl)cc2C(F)(F)F)cc1` [Example 98, hydrochloride], growth was halved (GI50) at 20 nM.

Compound `CN(C)CCNC(=O)c1ccc(-c2ccc(-c3ccc(Cl)cc3)n2-c2ccccc2C(F)(F)F)s1` [Example 99, hydrochloride] returned a GI50 of 40 nM.

Compound `O=C(Cc1ccc(-c2ccc(-c3ccc(Cl)cc3)n2-c2ccccc2C(F)(F)F)cc1)NCCN1CCOCC1` [Example 100, hydrochloride] displayed a 50% growth inhibitory concentration (GI50) of 130 nM.

Turning to `O=C(Cc1ccc(-c2ccc(-c3ccc(Cl)cc3)n2-c2ccccc2C(F)(F)F)cc1)NCCN1CCNCC1` [Example 101, hydrochloride], growth was halved (GI50) at 60 nM.

In turn, `O=C(c1cccc(-c2ccc(-c3ccc(Br)cc3)n2-c2ccccc2C(F)(F)F)c1)N1CCC(Cc2cccnc2)CC1` [Example 102, hydrochloride] displayed a GI50 of 380 nM.

In turn, `C[C@@H](CNC(=O)c1ccc(-c2ccc(-c3ccc(Cl)cc3)n2-c2ccccc2C(F)(F)F)cc1)N(C)C` [Example 103] came in with a GI50 of 40 nM.

With `O=C(NCCN1CCOCC1)c1ccc(-n2ncc(-c3ccc(Cl)cc3)c2-c2ccccc2C(F)(F)F)cc1` [Example 104, hydrochloride], the GI50 is 150 nM.
